Source: the supplement of paper PMC10307832

Assays:
Experiment in all cases: relative viability (nuclei count vs DMSO), 5 days (fraction); higher = more cells survive
Midostaurin + Bortezomib = compound: CO[C@@H]1[C@H](N(C)C(=O)c2ccccc2)C[C@H]2O[C@]1(C)n1c3ccccc3c3c4c(c5c6ccccc6n2c5c31)C(=O)NC4 [Midostaurin] + CC(C)C[C@H](NC(=O)[C@H](Cc1ccccc1)NC(=O)c1cnccn1)B(O)O [Bortezomib] (partner 0.002 µM)
Method in brief: (§1)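 Relative viability equals treated-well nuclei counts divided by vehicle-well nuclei counts. Counts came from 4× images of lung cancer cell lines grown in 1536-well plates for 5 days after pin-tool dosing on the day after seeding. Dosing used one drug alone or a fixed anchor-drug dose plus five library-drug doses (not always all listed) in √10 steps, and values are medians of duplicate plates.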

Midostaurin + Tozasertib = compound: CO[C@@H]1[C@H](N(C)C(=O)c2ccccc2)C[C@H]2O[C@]1(C)n1c3ccccc3c3c4c(c5c6ccccc6n2c5c31)C(=O)NC4 [Midostaurin] + Cc1cc(Nc2cc(N3CCN(C)CC3)nc(Sc3ccc(NC(=O)C4CC4)cc3)n2)n[nH]1 [Tozasertib] (partner 0.1 µM)
Method in brief: as §1

Midostaurin + Phenformin = compound: CO[C@@H]1[C@H](N(C)C(=O)c2ccccc2)C[C@H]2O[C@]1(C)n1c3ccccc3c3c4c(c5c6ccccc6n2c5c31)C(=O)NC4 [Midostaurin] + N=C(N)NC(=N)NCCc1ccccc1 [Phenformin] (partner 250 µM)
Method in brief: as §1

Midostaurin + Decitabine = compound: CO[C@@H]1[C@H](N(C)C(=O)c2ccccc2)C[C@H]2O[C@]1(C)n1c3ccccc3c3c4c(c5c6ccccc6n2c5c31)C(=O)NC4 [Midostaurin] + Nc1ncn([C@H]2C[C@H](O)[C@@H](CO)O2)c(=O)n1 [Decitabine] (partner 2 µM)
Method in brief: as §1

[1] = compound: COc1cc(-c2nn([C@H]3CC[C@H](N4CCN(C(C)=O)CC4)CC3)c3ncnc(N)c23)ccc1NC(=O)c1cc2ccccc2n1C + Cc1nc(Nc2ncc(C(=O)Nc3c(C)cccc3Cl)s2)cc(N2CCN(CCO)CC2)n1 [Dasatinib] (partner 0.075 µM)
Method in brief: as §1

Cell Line	relative viability (Midostaurin + Bortezomib; first compound 0.01 µM)	relative viability (Midostaurin + Bortezomib; first compound 0.03162 µM)	relative viability (Midostaurin + Bortezomib; first compound 0.1 µM)	relative viability (Midostaurin + Bortezomib; first compound 0.3162 µM)	relative viability (Midostaurin + Tozasertib; first compound 0.01 µM)	relative viability (Midostaurin + Tozasertib; first compound 0.03162 µM)	relative viability (Midostaurin + Tozasertib; first compound 0.1 µM)	relative viability (Midostaurin + Tozasertib; first compound 0.3162 µM)	relative viability (Midostaurin + Phenformin; first compound 0.01 µM)	relative viability (Midostaurin + Phenformin; first compound 0.03162 µM)	relative viability (Midostaurin + Phenformin; first compound 0.1 µM)	relative viability (Midostaurin + Phenformin; first compound 0.3162 µM)	relative viability (Midostaurin + Decitabine; first compound 0.01 µM)	relative viability (Midostaurin + Decitabine; first compound 0.03162 µM)	relative viability (Midostaurin + Decitabine; first compound 0.1 µM)	relative viability (Midostaurin + Decitabine; first compound 0.3162 µM)	relative viability ([1]; first compound 0.0128 µM)	relative viability ([1]; first compound 0.04048 µM)	relative viability ([1]; first compound 0.128 µM)	relative viability ([1]; first compound 1.28 µM)
HCC-827	0.984	0.951	0.992	1.07	0.407	0.352	0.4	0.416	0.364	0.369	0.449	0.422	0.303	0.318	0.356	0.349	0.311	0.313	0.281	0.275
HOP-62	0.887	0.728	0.635	1.17	0.363	0.431	0.303	0.321	0.586	0.66	0.69	0.646	0.203	0.25	0.246	0.227	0.704	0.514	0.632	0.765
LC-2-ad	1.03	0.979	0.995	1	0.509	0.545	0.52	0.422	0.542	0.562	0.632	0.586	0.672	0.751	0.699	0.763	0.633	0.25	0.622	0.369
LCLC-97TM1	0.475		0.419	0.595	0.21	0.218	0.247	0.257	0.434	0.324	0.38	0.415	0.215	0.239	0.25	0.242	0.97	0.348	0.789	0.697
LCLC-103H	1.07	0.924	1.02	1.1	0.522	0.45	0.456	0.379	0.347	0.309	0.359	0.366	0.712	0.742	0.752	0.757	0.538	0.472	0.41	0.449
LOU-NH91	0.506	0.48	0.529	0.528	0.722	0.608	0.653	0.642	0.755	0.701	0.764	0.798	0.783	0.781	0.835	0.798	0.557	0.545	0.531	0.54
LU99A	1.08	1.17	1.1	0.998	0.227	0.304	0.259	0.244	0.872	0.977	0.899	0.729	0.912	0.948	0.657	0.594	0.541	0.541	0.634	0.556
LXF-289	0.997	0.97	0.967	0.974	0.23	0.23	0.178	0.176	0.519	0.51	0.49	0.505	0.394	0.339	0.342	0.401	0.291	0.314	0.237	0.227
NCI-H23	1.03	0.999	0.923	1.06	0.344	0.575	0.348	0.259	0.713	0.798	0.773	0.772	0.302	0.368	0.308	0.249	0.736	0.469	0.778	0.741
NCI-H322M	1.37	1.27	1.17	1.34	0.474	0.477	0.481	0.544	0.831	0.673	0.811	0.875	0.638	0.673	0.651	0.715	0.262	0.256	0.234	0.253
NCI-H441	0.477	0.647	0.392	0.442	0.592	0.631	0.564	0.401	0.914	0.773	0.747	0.768	0.249	0.237	0.221	0.23	0.628	0.463	0.657	0.536
NCI-H460	1.19	1.19	1.01	1.1	0.448	0.492	0.44	0.415	0.492	0.507	0.561	0.534	0.491	0.526	0.53	0.638	0.526	0.386	0.475	0.507
NCI-H520	0.657	0.492	0.594	0.596	0.434	0.411	0.457	0.407	0.572	0.471	0.756	0.634	0.498	0.501	0.514	0.427	0.211	0.273	0.236	0.307
NCI-H596	0.902	1.12	1.1	1.07	0.991	0.977	0.899	0.947	0.898	0.963	0.816	0.986	1.1	1.11	1.07	1.12	0.564	0.73	0.573	0.559
NCI-H647	0.953	1.07	0.876	0.765	0.411	0.35	0.293	0.18	0.533	0.603	0.473	0.433	0.405	0.433	0.346	0.374	0.155	0.227	0.164	0.203
NCI-H650	0.635	0.783	0.734	0.625	0.657	0.751	0.749	0.615	0.403	0.413	0.437	0.322	0.339	0.311	0.321	0.334	0.475	0.592	0.462	0.456
NCI-H661	0.742	0.933	0.667	0.72	0.362	0.323	0.364	0.376	0.279	0.286	0.261	0.311	0.622	0.611	0.598	0.596	0.923	0.765	0.829	0.94
NCI-H727	0.906	0.81	0.771	0.795	0.704	0.704	0.575	0.468	0.545	0.437	0.665	0.538	0.88	0.911	0.925	0.932	0.322		0.296	0.381
NCI-H838	0.886	0.91	0.638	0.448	0.271	0.283	0.262	0.286	0.704	0.551	0.397	0.274	0.478	0.447	0.385	0.328	0.304	0.261	0.276	0.342
NCI-H1355	1.13	1.16	1.31	1.26	0.544	0.632	0.597	0.475	0.43	0.443	0.464	0.465	0.361	0.386	0.346	0.348	0.834	0.798	0.719	0.884
NCI-H1437	0.556	0.499	0.478	0.545	0.453	0.477	0.401	0.403	0.373	0.285	0.298	0.372	0.579	0.607	0.561	0.53	0.428	0.437	0.439	0.302
NCI-H1650	0.214	0.227	0.206	0.213	0.391	0.359	0.357	0.342	0.408	0.498	0.413	0.302	0.352	0.418	0.426	0.517	0.265	0.304	0.32	0.29
NCI-H1651	0.955	1.01	1.02	1.03	0.628	0.752	0.543	0.685	0.377	0.4	0.327	0.299	0.612	0.596	0.696	0.649	0.426	0.568	0.432	0.458
NCI-H1666	0.852	0.894	0.882	0.888	0.629	0.572	0.596	0.488	0.496	0.537	0.546	0.537	0.719	0.684	0.777	0.716	0.766	0.807	0.802	0.756
NCI-H1734	0.868	0.886	0.915	0.786	0.239	0.276	0.294	0.267	0.421	0.354	0.453	0.366	0.508	0.499	0.486	0.521	0.429	0.599	0.531	0.516
NCI-H1755	0.914	0.912	0.887	0.755	0.521	0.614	0.535	0.547	0.631	0.621	0.609	0.592	0.778	0.684	0.715	0.739	0.452	0.386	0.43	0.433
